Results: US11753418B2, “Compounds for the modulation of Myc activity” (Syros Pharmaceuticals, Inc., priority 2015, dated 2023)
Counter-ions that a name gives are not always drawn.

What was measured:
[1] = system: human small lung cancer cell line H2171; test: Cell Viability Assay (ATPlite); format: cell-based; settings: NCI-H2171, 72 h, H2171 cells, incubated for three days, ATPlite readout
Description: Compounds of the invention were assayed for cell viability using the human small lung cancer cell line H2171 as described in the following protocol. Cells were counted and adjusted to 20,000 cells/mL. Using a Biotek EL406, 50 μL of cells in media were distributed into 384 well white plates from Thermo. Immediately after plating, compound in DMSO was distributed to plates. Compounds were added to plates using a 50 nL 384 well pin transfer manifold on a Janus workstation. Stocks were arrayed in 10 point dose response in DMSO stock in 384 well Greiner compound plates. After the addition of compounds, plates were incubated for three days in a 37° C. incubator. Cell viability was read out using ATPlite from Perkin Elmer. Lyophilized powder was resuspended in lysis buffer and diluted 1:2 with deionized water. 25 μL of this solution was added to each well using the Biotek liquid handler. Plates were incubated for 15 minutes at room temperature before signal was read on an Envision Plate Reader. The data from this assay are summarized in Table 3 below (H2171 activity).

c-Myc/Max/Ebox DNA = biological target: T1, c-Myc/Max/Ebox DNA (Homo sapiens, UniProt P01106); test: c-Myc/Max/Ebox DNA AlphaScreen Assay; format: binding; settings: free c-Myc 20 nM, his6-Max 5 nM, biotinylated Ebox oligo 10 nM, 2 hour incubation
T1 construct: his6 (cleaved yes)
T1 sequence (P01106 whole entry): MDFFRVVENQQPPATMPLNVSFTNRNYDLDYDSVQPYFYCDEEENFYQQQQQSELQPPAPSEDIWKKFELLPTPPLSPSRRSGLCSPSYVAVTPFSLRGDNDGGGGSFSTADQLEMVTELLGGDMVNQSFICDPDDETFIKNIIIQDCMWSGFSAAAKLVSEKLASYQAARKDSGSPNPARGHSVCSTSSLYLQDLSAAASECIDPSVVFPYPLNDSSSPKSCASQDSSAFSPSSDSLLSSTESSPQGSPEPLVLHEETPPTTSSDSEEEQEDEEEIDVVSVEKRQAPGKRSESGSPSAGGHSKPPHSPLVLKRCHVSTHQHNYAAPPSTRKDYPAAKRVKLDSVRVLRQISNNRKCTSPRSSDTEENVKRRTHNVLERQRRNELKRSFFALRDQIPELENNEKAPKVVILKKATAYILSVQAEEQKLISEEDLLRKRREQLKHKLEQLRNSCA
Procedure, shortened: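 Tag-free c-Myc (20 nM final) and biotinylated Ebox DNA (10 nM final) met compound first, then his6-Max was added; 2 h incubation in pH 8.0 HEPES buffer (150 mM NaCl, BSA, Tween20, glycogen, DTT), DMSO ≤2%. Ternary complex read as AlphaScreen signal between Ni-chelate acceptor and streptavidin donor beads.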

SMILES	IC50 [1] [nM]	IC50 (c-Myc/Max/Ebox DNA) [nM]
CC(=O)Nc1sc2c(c1-c1nc3cnccc3s1)CCN(C(C)CN1CCOCC1)C2 (stereo not drawn) [Compound 105, N-(6-(1-morpholinopropan-2-yl)-3-(thiazolo[4,5-c]pyridin-2-yl)-4,5,6,7-tetrahydrothieno[2,3-c]pyridin-2-yl)acetamide]	500 to 5000	500 to 5000
O=C(CCN1CC(C(=O)O)C1)Nc1sc2c(c1-c1nc3cnccc3s1)CCNC2 [Compound 172]	< 500	< 500
CCC(C)NCCC(=O)[15NH]c1sc2c(c1-c1nc3cnccc3s1)CCNC2 (stereo not drawn) [Compound 251, 3-(sec-Butylamino)-N-(3-(thiazolo[4,5-c]pyridin-2-yl)-4,5,6,7-tetrahydrothieno[2,3-c]pyridin-2-yl)propan-^15N-amide]	< 500	< 500
CNCCC(=O)Nc1sc2c(c1-c1nc3cnccc3s1)CCNC2 [Compound 224, 3-(Methylamino)-N-(3-(thiazolo[4,5-c]pyridin-2-yl)-4,5,6,7-tetrahydrothieno[2,3-c]pyridin-2-yl)propanamide]	500 to 5000	< 500
COCCNCCC(=O)Nc1sc2c(c1-c1nc3cnccc3s1)CCNC2 [Compound 216, 3-((2-methoxyethyl)amino)-N-(3-(thiazolo[4,5-c]pyridin-2-yl)-4,5,6,7-tetrahydrothieno[2,3-c]pyridin-2-yl)propanamide]	< 500	< 500
CC(=O)Nc1sc2c(c1-c1nc3c[n+]([O-])ccc3s1)CCNC2 [Compound 108, 2-(2-acetamido-4,5,6,7-tetrahydrothieno[2,3-c]pyridin-3-yl)thiazolo[4,5-c]pyridine 5-oxide]	500 to 5000	500 to 5000
COCCNCCC(=O)Nc1sc2c(c1-c1nc3cnc(Cl)cc3s1)CCNC2 [Compound 243]	< 500	< 500
CCN1[C@H](C)Cc2c(sc(NC(C)=O)c2-c2nc3cnccc3s2)[C@H]1C [Compound 119, N-((5R,7R)-6-ethyl-5,7-dimethyl-3-(thiazolo[4,5-c]pyridin-2-yl)-4,5,6,7-tetrahydrothieno[2,3-c]pyridin-2-yl)acetamide]	< 500	< 500
CCN1Cc2sc(NC(C)=O)c(-c3nc4cnccc4s3)c2C[C@@H]1C [Compound 231, (S)—N-(6-ethyl-5-methyl-3-(thiazolo[4,5-c]pyridin-2-yl)-4,5,6,7-tetrahydrothieno[2,3-c]pyridin-2-yl)acetamide]	< 500	500 to 5000
C[C@H]1Cc2c(sc(NC(=O)CCN[C@@H]3C[C@H]4CNC[C@H]4C3)c2-c2nc3cnccc3s2)CN1 [Compound 247, N—((S)-5-methyl-3-(thiazolo[4,5-c]pyridin-2-yl)-4,5,6,7-tetrahydrothieno[2,3-c]pyridin-2-yl)-3-(((3aR,5s,6aS)-octahydrocyclopenta[c]pyrrol-5-yl)amino)propanamide]	< 500	5000 to 25000
CC(=O)Nc1sc2c(c1-c1nc3c(C)nc(C)cc3s1)CCNC2 [Compound 228, N-(3-(4,6-dimethylthiazolo[4,5-c]pyridin-2-yl)-4,5,6,7-tetrahydrothieno[2,3-c]pyridin-2-yl)acetamide hydrochloride]	< 500	< 500
C[15NH]CCC(=O)Nc1sc2c(c1-c1nc3cnccc3s1)CCNC2 [Compound 248, 3-(Methylamino)-N-(3-(thiazolo[4,5-c]pyridin-2-yl)-4,5,6,7-tetrahydrothieno[2,3-c]pyridin-2-yl)propanamide]	< 500	< 500
CCN1C(C)c2sc(NC(C)=O)c(-c3nc4c(C(F)F)nccc4s3)c2C[C@H]1C (stereo in doubt) [Compound 235, N-((5R,7R)-3-(4-(difluoromethyl)thiazolo[4,5-c]pyridin-2-yl)-6-ethyl-5,7-dimethyl-4,5,6,7-tetrahydrothieno[2,3-c]pyridin-2-yl)acetamide]	< 500	< 500
CC[C@H](C)NCCC(=O)Nc1sc2c(c1-c1nc3cnccc3s1)CCNC2 [Compound 122, (S)-3-(sec-butylamino)-N-(3-(thiazolo[4,5-c]pyridin-2-yl)-4,5,6,7-tetrahydrothieno[2,3-c]pyridin-2-yl)propanamide]	< 500	< 500
CCN1C(C)Cc2c(sc(NC(C)=O)c2-c2nc3cnccc3s2)C1C (stereo not drawn) [Compound 117, N-(6-ethyl-5,7-dimethyl-3-(thiazolo[4,5-c]pyridin-2-yl)-4,5,6,7-tetrahydrothieno[2,3-c]pyridin-2-yl)acetamide]	500 to 5000	500 to 5000
